In the assay the test system is duplex DNA containing a CC mismatch. The experiment in a line: Photocleavage of mismatched DNA upon irradiation (competition titration). Format: biochemical. As to conditions: 340-440 nm irradiation. The protocol: For [RhPt] Conjugate, a single-stranded DNA oligomer with the sequence [NT]. ID NO: 2) (underline denotes the mismatch) was labeled at the 5'-end with [^32P]-ATP and polynucleotide kinase (PNK) at 37° C. for 1 h. The radiolabeled DNA was purified by gel electrophoresis and annealed to its mismatched complement (containing a CC mismatch) by heating to 90° C. in buffer (100 mM NaCl, 20 mM NaPi, pH 7.1), followed by slow cooling to ambient temperature over 3 h, to give a final concentration of 2 μM duplex DNA. Racemic solutions of the metal complex (containing all stereoisomers) were prepared in Milli-Q water over a range of concentrations (100 nM-50 μM). For each sample, 4 μM […] (5 μl), which photocleaves DNA at mismatched sites, 2 μM annealed mismatched duplex DNA (10 μl), and the non-photocleaving competitor complex at various concentrations (5 μl) were combined to give 1 μM […] and 1 μM duplex DNA as the final concentrations. […] The amounts of DNA in each band were analyzed by autoradiography and quantitated by phosphorimagery (ImageQuant) (FIG. 20). […] To assess the binding of the rhodium subunit of RhPt at the CC mismatch, the fraction of cleaved DNA was quantified and expressed as a percentage of the total DNA in each lane and plotted against the log of the concentration of RhPt. […]

Regarding “[Rh(chrysi)(HDPA)(Amal)Pt(DACH]^3+ [RhPt]”, the “photocleavage of DNA upon irradiation” value was “does not photocleave DNA”.
In the case of “rac-[Rh(bpy)2chrysi]Cl3 [rac-[Rh(bpy)2chrysi]3+]” it was “does photocleave DNA at mismatched sites”.

These data come from patent publication US9969858B2, “Metalloinsertor conjugates” (CALIFORNIA INSTITUTE OF TECHNOLOGY, priority 2015, dated 2018).
